Columns and labels:
[1] = biological target: T1, MMP-13 catalytic domain (Homo sapiens, UniProt P45452); test: MMP-13 catalytic domain inhibition (thiopeptolide substrate hydrolysis); type: biochemical; details: read-out: MMP-13CD IC50
T1 construct: use the catalytic domain of the MMP-13 enzyme, namely matrix metalloproteinase-13 catalytic domain (“MMP-13CD”)
Text: The assays measure the amount by which a test compound reduces the hydrolysis of a thiopeptolide substrate catalyzed by a matrix metalloproteinase enzyme. […] One such assay is described below in Biological Method 1.
Some of the particular methods described below use the catalytic domain of the MMP-13 enzyme, namely matrix metalloproteinase-13 catalytic domain (“MMP-13CD”), rather than the corresponding full-length enzyme, MMP-13.
Thiopeptolide substrates show virtually no decomposition or hydrolysis at or below neutral pH in the absence of a matrix metalloproteinase enzyme. A typical thiopeptolide substrate commonly utilized for assays is Ac-Pro-Leu-Gly-thioester-Leu-Leu-Gly-OEt. […] Assays are carried out with and without matrix metalloproteinase inhibitor compounds, and the amount of hydrolysis is compared for a determination of inhibitory activity of the test compounds.

| SMILES | IC50 [1] [nM] | melting point [°C] |
| --- | --- | --- |
| COc1ccc(Cn2nnc(-c3ccc(OC)c(C(=O)NCc4ccc(C(F)(F)F)cc4)c3)n2)cc1 [Example 37, 2-Methoxy-5-[2-(4-methoxy-benzyl)-2H-tetrazol-5-yl]-N-(4-trifluoromethyl-benzyl)-benzamide] | – | 188 to 190 |
| CS(=O)(=O)c1ccc(Cn2nnc(-c3cccc(C#CCc4ccc(F)cc4)c3)n2)cc1 [Example D5, 5-{3-[3-(4-Fluoro-phenyl)-prop-1-ynyl]-phenyl}-2-(4-methanesulfonyl-benzyl)-2H-tetrazole] | 150 | 101 to 104 |
| CS(=O)(=O)c1ccc(Cn2nnc(-c3ccnc(C(=O)NCc4cncnc4)c3)n2)cc1 [Example F4, 4-[2-(4-Methanesulfonyl-benzyl)-2H-tetrazol-5-yl]-pyridine-2-carboxylic acid (pyrimidin-5-ylmethyl)-amide] | 210 | 178 to 179 |
| CS(=O)(=O)c1ccc(Cn2nnc(-c3ccnc(C(=O)NCc4ccc(Oc5ccccc5)cc4)c3)n2)cc1 [Example F8, 4-[2-(4-Methanesulfonyl-benzyl)-2H-tetrazol-5-yl]-pyridine-2-carboxylic acid 4-phenoxy-benzylamide] | 190 | 100 to 103 |
| CS(=O)(=O)c1ccc(Cn2nnc(-c3ccnc(C(=O)NC4CCc5ccccc54)c3)n2)cc1 (stereo not drawn) [Example F9, 4-[2-(4-Methanesulfonyl-benzyl)-2H-tetrazol-5-yl]-pyridine-2-carboxylic acid indan-1-ylamide] | – | 147 to 150 |
| CS(=O)(=O)c1ccc(Cn2nnc(-c3ccnc(C(=O)NCc4ccc(-n5cccn5)cc4)c3)n2)cc1 [Example F11, 4-[2-(4-Methanesulfonyl-benzyl)-2H-tetrazol-5-yl]-pyridine-2-carboxylic acid 4-pyrazol-1-yl-benzylamide] | 11000 | 173 to 174 |
| O=C(O)c1ccc(Cn2nnc(-c3cccc(C#Cc4ccccc4)c3)n2)cc1 [Example G1, 4-[5-(3-Phenylethynyl-phenyl)-tetrazol-2-ylmethyl]-benzoic acid] | 690 | 226 to 228 |
| O=C(O)c1ccc(Cn2nnc(-c3cccc(C#CCCc4ccccc4)c3)n2)cc1 [Example G2, 4-{5-[3-(4-Phenyl-but-1-ynyl)-phenyl]-tetrazol-2-ylmethyl}-benzoic acid] | 280 | 198 to 199 |
| CC(C)CC#Cc1cccc(-c2nnn(Cc3ccc(C(=O)O)cc3)n2)c1 [Example G3, 4-{5-[3-(4-Methyl-pent-1-ynyl)-phenyl]-tetrazol-2-ylmethyl}-benzoic acid] | – | 192 to 193 |

More lines, in order of falling IC50 [1], values ahead:

| IC50 [1] [nM] | melting point [°C] | SMILES |
| --- | --- | --- |
| 150 | 158 to 159 | NS(=O)(=O)c1ccc(Cn2nnc(-c3cccc(C#CCc4ccccc4)c3)n2)cc1 [Example D4, 4-{5-[3-(3-Phenyl-prop-1-ynyl)-phenyl]-tetrazol-2-ylmethyl}-benzenesulfonamide] |
| 110 | 174 to 175 | CS(=O)(=O)c1ccc(Cn2nnc(-c3ccnc(C(=O)NCc4cccnc4)c3)n2)cc1 [Example F7, 4-[2-(4-Methanesulfonyl-benzyl)-2H-tetrazol-5-yl]-pyridine-2-carboxylic acid (pyridin-3-ylmethyl)-amide] |
| 47 | 150 to 152 | CS(=O)(=O)c1ccc(Cn2nnc(-c3ccnc(C(=O)NCc4ccc(Cl)c(Cl)c4)c3)n2)cc1 [Example F10, 4-[2-(4-Methanesulfonyl-benzyl)-2H-tetrazol-5-yl]-pyridine-2-carboxylic acid 3,4-dichloro-benzylamide] |
| 39 | 204 to 206 | COc1cccc(Cn2nnc(-c3cccc(C(=O)NCc4ccc(C(=O)O)cc4)c3)n2)c1 [Example 4, 4-({3-[2-(3-Methoxy-benzyl)-2H-tetrazol-5-yl]-benzoylamino}-methyl)-benzoic acid] |
| 24 | 178 to 179 | N#Cc1ccc(Cn2nnc(-c3ccnc(C(=O)NCc4ccncc4)c3)n2)cc1 [Example F5, 4-[2-(4-Cyano-benzyl)-2H-tetrazol-5-yl]-pyridine-2-carboxylic acid (pyridin-4-ylmethyl)-amide] |
| 24 | 145 to 146 | COc1ccc(CNC(=O)c2cc(-c3nnn(Cc4ccc(S(C)(=O)=O)cc4)n3)ccn2)cc1 [Example F6, 4-[2-(4-Methanesulfonyl-benzyl)-2H-tetrazol-5-yl]-pyridine-2-carboxylic acid 4-methoxy-benzylamide] |
| 22 | 143 to 144 | CS(=O)(=O)c1ccc(Cn2nnc(-c3ccnc(C(=O)NCc4ccncc4)c3)n2)cc1 [Example F3, 4-[2-(4-Methanesulfonyl-benzyl)-2H-tetrazol-5-yl]-pyridine-2-carboxylic acid (pyridin-4-ylmethyl)-amide] |
| 10 | 211 to 213 | O=C(O)c1ccc(Cn2nnc(-c3cncc(C#CCc4ccccc4)c3)n2)cc1 [Example H1, 4-{5-[5-(3-Phenyl-prop-1-ynyl)-pyridin-3-yl]-tetrazol-2-ylmethyl}-benzoic acid] |
| 7 | 158.2 to 159.6 | O=C(O)COc1ccc(Cn2nnc(-c3cccc(C#CCc4ccc(F)cc4)c3)n2)cc1 [Example D3, [4-(5-{3-[3-(4-Fluoro-phenyl)-prop-1-ynyl]-phenyl}-tetrazol-2-ylmethyl)-phenoxy]-acetic acid] |
| 4.5 | 151 to 152 | O=S(=O)(O)c1ccc(Cn2nnc(-c3cccc(C#CCc4ccc(F)cc4)c3)n2)cc1 [Example D1, 4-(5-{3-[3-(4-Fluoro-phenyl)-prop-1-ynyl]-phenyl}-tetrazol-2-ylmethyl)-benzenesulfonic acid] |
| 2.6 | 158 to 159 | O=C(O)Cc1ccc(Cn2nnc(-c3cccc(C#CCc4ccc(F)cc4)c3)n2)cc1 [Example I1, [4-(5-{3-[3-(4-Fluoro-phenyl)-prop-1-ynyl]-phenyl}-tetrazol-2-ylmethyl)-phenyl]-acetic acid] |
| 1.2 | 172 to 173 | O=C(O)C1CCC(Cn2nnc(-c3cccc(C#CCc4ccc(F)cc4)c3)n2)CC1 (stereo not drawn) [Example I2, 4-(5-{3-[3-(4-Fluoro-phenyl)-prop-1-ynyl]-phenyl}-tetrazol-2-ylmethyl)-cyclohexanecarboxylic acid] |

Reference: patent publication US20090029995A1, “HETERO BIARYL DERIVATIVES AS MATRIX METALLOPROTEINASE INHIBITORS” (WARNER-LAMBERT COMPANY, priority 2002, published 2009)
